Data published in patent US12076331B2, “Inositol derivatives for use in pathological crystallization” (ETH Zurich, priority 2015, dated 2024).

How the values were obtained:
[1] = test system: RPTEC/TERT 1 human proximal tubule cells; experiment: RNA sequencing of Ca/P treated RPTEC; type: cell-based; details: 50 μM, 5/7 mM Ca/P, 24 h
From the text: A) Heatmap and hierarchical clustering of relative gene expression levels determined by RNA sequencing. […] Weighted set coverage of gene ontology terms and their respective enrichment score for differentially expressed genes in the Ca/P vs. medium control group is plotted (all FDR≤0.05). D) Normalized count of gene transcripts (FPKM—fragments per kilobase of exon model per million reads mapped) involved in inflammatory responses, ECM composition, cell proliferation and tissue homeostasis of the different treatment groups is plotted (mean+SD, N=3).
Cells were cultured as described in the imaging assay and treated with a medium control (ProxUp basal medium containing 1/1 mM Ca/P), 5/7 mM Ca/P, 5/7 mM Ca/P in medium containing 50 µM (OEG2)2-IP4 or 50 µM (OEG2)2-IP4 in medium for 24 h. Total RNA was extracted using the RNeasy kit (Quiagen) according to the manufacturer's instructions. Three wells per sample group were prepared and total RNA extracted of those 3 wells pooled. mRNA was purified and RNAseq library was prepared using the TrueSeq RNA kit (Illumina). […] Reads were aligned to the human reference genome GRCh38.p10 using the STAR tool (https://github.com/alexdobin/STAR) and transcripts quantified using the Kallisto program (42). […] For comparison of expression levels of the selected genes, the fragments per kilobase of exon model per million reads mapped (FPKM) were used. […]

[2] = reported, Schantl et al. 2020; cited from earlier work
[3] = previous study, Kletzmayr et al. 2020; cited from earlier work

SMILES: COCCOCCO[C@@H]1C(OP(=O)(O)O)[C@H](OCCOCCOC)[C@@H](OP(=O)(O)O)C(OP(=O)(O)O)[C@H]1OP(=O)(O)O (stereo partly drawn) [(OEG2)2-IP4]
- Ca/P-induced change in gene expression profile [1]: prevented
- pharmacokinetic profile [2]: favorable
- efficacy on CaOx crystallization in solution [3]: limited efficacy
